Test results: US12202843B2, “Muscarinic receptor agonists” (Nxera Pharma UK Limited, priority 2014, dated 2025)

Assays:
[1] = target: T1, human muscarinic M1 receptor (Homo sapiens, UniProt P11229); experiment: Alphascreen Surefire phospho-ERK1/2 functional assay, M1; format: cell-based; details: for EC50: CHO cells stably expressing human M1, read-out: pEC50 M1 (converted); for Emax: CHO, read-out: % Emax cf. ACh, M1, CHO cells stably expressing human M1, relative to ACh; for % Emax cf. ACh, M1: CHO cells stably expressing human M1, relative to ACh
T1 sequence (P11229 1-460): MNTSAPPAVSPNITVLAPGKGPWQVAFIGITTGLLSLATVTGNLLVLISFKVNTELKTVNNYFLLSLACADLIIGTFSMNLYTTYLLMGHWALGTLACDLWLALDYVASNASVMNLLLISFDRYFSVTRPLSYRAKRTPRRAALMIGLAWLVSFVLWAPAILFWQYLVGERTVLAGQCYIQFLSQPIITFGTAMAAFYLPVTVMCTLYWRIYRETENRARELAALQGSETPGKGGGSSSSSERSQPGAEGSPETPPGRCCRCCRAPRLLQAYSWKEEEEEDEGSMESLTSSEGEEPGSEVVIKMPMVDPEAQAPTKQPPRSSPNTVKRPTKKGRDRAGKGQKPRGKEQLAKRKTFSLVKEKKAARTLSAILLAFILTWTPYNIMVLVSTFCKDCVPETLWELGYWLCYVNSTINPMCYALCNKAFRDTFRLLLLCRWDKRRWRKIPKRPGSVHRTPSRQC
Protocol: (§1) ERK1/2 phosphorylation is a downstream consequence of both Gq/11 and Gi/o protein coupled receptor activation, making it highly suitable for the assessment of M1, M3 (Gq/11 coupled) and M2, M4 receptors (Gi/o coupled), rather than using different assay formats for different receptor subtypes. CHO cells stably expressing the human muscarinic M1, M2, M3 or M4 receptor were plated (25K/well) onto 96-well tissue culture plates in MEM-alpha+10% dialysed FBS. Once adhered, cells were serum-starved overnight. Agonist stimulation was performed by the addition of 5 μL agonist to the cells for 5 min (37° C.). Media was removed and 50 μL of lysis buffer added. […] Plates were incubated for 2 h with gentle agitation in the dark and then read on a PHERAstar plate reader.
(§2) pEC50 and Emax figures were calculated from the resulting data for each receptor subtype.

[2] = target: T2, human muscarinic M4 receptor (Homo sapiens, UniProt P08173); experiment: Alphascreen Surefire phospho-ERK1/2 functional assay, M4; format: cell-based; details: for EC50: CHO cells stably expressing human M4, read-out: pEC50 M4 (converted); for Emax: CHO, read-out: % Emax cf. ACh, M4, CHO cells stably expressing human M4, relative to ACh; for % Emax cf. ACh, M4: CHO cells stably expressing human M4, relative to ACh
T2 construct: expressed in transfected cells
T2 sequence (P08173 1-479): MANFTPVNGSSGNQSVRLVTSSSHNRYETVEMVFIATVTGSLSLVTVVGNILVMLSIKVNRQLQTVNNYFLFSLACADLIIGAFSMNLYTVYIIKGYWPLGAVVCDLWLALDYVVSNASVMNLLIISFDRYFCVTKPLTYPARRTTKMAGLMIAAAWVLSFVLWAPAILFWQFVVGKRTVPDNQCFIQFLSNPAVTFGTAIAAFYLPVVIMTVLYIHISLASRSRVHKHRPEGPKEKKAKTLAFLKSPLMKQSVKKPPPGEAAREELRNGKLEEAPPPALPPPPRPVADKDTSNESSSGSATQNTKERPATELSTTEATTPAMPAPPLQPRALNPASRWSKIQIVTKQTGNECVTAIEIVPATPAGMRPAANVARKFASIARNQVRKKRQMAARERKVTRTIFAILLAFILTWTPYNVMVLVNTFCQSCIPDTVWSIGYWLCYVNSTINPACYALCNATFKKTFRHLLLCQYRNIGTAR
Protocol: as §1, §2

Structure (SMILES)	EC50 [1]	Emax [1]	EC50 [2]	Emax [2]	further results
CCOC(=O)N1C2CCC1C(F)C(N1CCC3(CC1)CNC(=O)O3)C2 (single isomer, unassigned) [Example 2-19 Isomer 2]	1 µM	94%	3.98 µM	74%	–
CCOC(=O)N1C2CCC1CC(N1CCC3(CC1)CC(=O)N(C(C)C)C3)C2 (single isomer, unassigned) [Example 2-26 Isomer 2]	0.631 µM	43%	0.631 µM	22%	–
CCSC(=O)N1C2CCC1CC(N1CCC3(CC1)CNC(=O)C3)C2 (single isomer, unassigned) [Example 2-35 Isomer 2]	0.794 µM	–	–	–	% Emax cf. ACh, M1 ([1]; listed as 2-35 Isomer 2): 50%; % Emax cf. ACh, M4 [2]: 10%
CCOC(=O)N1C2CCC1CC(N1CCC3(CC1)CNC(=O)O3)C2 (single isomer, unassigned) [Example 2-14 Isomer 1]	0.2 µM	108%	0.501 µM	55%	–
COC(=O)N1CC2CC(N3CCC4(CC3)CNC(=O)C4)CC1C2 (single isomer, unassigned) [Example 6-1 Isomer 1]	2.51 µM	–	> 20 µM	53%	% Emax cf. ACh, M1 ([1]; listed as 6-1 Isomer 1): 78%
CCSC(=O)N1C2CCC1CC(N1CCC3(CC1)CNC(=O)C3)C2 (single isomer, unassigned) [Example 2-35 Isomer 1]	0.0398 µM	–	> 20 µM	7%	% Emax cf. ACh, M1 ([1]; listed as 2-35 Isomer 1): 24%
CCOC(=O)N1CC2CCC1CC2N1CCC2(CC1)OC(=O)NC2CC (single isomer, unassigned) [Example 3-3 Isomer 2, ethyl 5-(4-ethyl-2-oxo-1-oxa-3,8-diazaspiro[4.5]dec-8-yl)-2-azabicyclo[2.2.2]octane-2-carboxylate]	0.794 µM	76%	0.316 µM	56%	–
[2H]C([2H])([2H])COC(=O)N1C2CCC1CC(N1CCC3(CC1)CNC(=O)C3)C2 (single isomer, unassigned) [Example 2-31 Isomer 1]	0.126 µM	–	0.251 µM	–	% Emax cf. ACh, M1 ([1]; listed as 2-31 Isomer 1): 112%; % Emax cf. ACh, M4 ([2]; listed as 2-31 Isomer 1): 53%
CCOC(=O)N1C2CCC1CC(N1CCCC3(CC1)CNC(=O)O3)C2 (single isomer, unassigned) [Example 9-2 Isomer 2, ethyl 3-(2-oxo-1-oxa-3,8-diazaspiro[4.6]undec-8-yl)-8-azabicyclo[3.2.1]octane-8-carboxylate]	> 20 µM	–	> 20 µM	–	% Emax cf. ACh, M1 ([1]; listed as 9-2 Isomer 2): 18%; % Emax cf. ACh, M4 ([2]; listed as 9-2 Isomer 2): 8%
CCOC(=O)N1CC2CCC(C1)C2N1CCC2(CC1)CNC(=O)C2 (single isomer, unassigned) [Example 4-1 Isomer 2]	0.501 µM	36%	> 20 µM	3%	–
CCOC(=O)N1C2CCC1CC(N1CCC3(CC1)CC(=O)N(CC1CC1)C3)C2 (single isomer, unassigned) [Example 2-28 Isomer 2]	0.501 µM	57%	0.316 µM	27%	–
CCOC(=O)N1C2CCC1CC(N1CCC3(CC1)OC(=O)NC3CC)C2 (single isomer, unassigned) [Example 2-16 Isomer 2]	0.631 µM	–	0.2 µM	–	% Emax cf. ACh, M1 ([1]; listed as 2-16 Isomer 2): 68%; % Emax cf. ACh, M4 ([2]; listed as 2-16 Isomer 2): 51%
CCOC(=O)N1CC2CCC1CC2N1CCC2(CC1)CNC(=O)C2 (single isomer, unassigned) [Example 3-1 Isomer 4, ethyl 5-(3-oxo-2,8-diazaspiro[4.5]dec-8-yl)-2-azabicyclo[2.2.2]octane-2-carboxylate]	1.26 µM	–	> 20 µM	–	% Emax cf. ACh, M1 ([1]; listed as 3-1 Isomer 4): 62%; % Emax cf. ACh, M4 ([2]; listed as 3-1 Isomer 4): 7%
CCOC(=O)N1CC2CCC1CC2N1CCC2(CC1)CNC(=O)O2 (single isomer, unassigned) [Example 3-2 Isomer 1, ethyl 5-(2-oxo-1-oxa-3,8-diazaspiro[4.5]dec-8-yl)-2-azabicyclo[2.2.2]octane-2-carboxylate]	0.251 µM	111%	1.26 µM	29%	–
CCOC(=O)N1C2CCCC1CC(N1CCC3(CC1)CNC(=O)O3)C2 (single isomer, unassigned) [Example 5-4 Isomer 1]	0.398 µM	76%	> 20 µM	–	% Emax cf. ACh, M4 ([2]; listed as 5-4 Isomer 1): 39%
CCOC(=O)N1C2CCC1CC(N1CCC3(CC1)CC(=O)N(CC(C)C)C3)C2 (single isomer, unassigned) [Example 2-27 Isomer 2]	0.398 µM	38%	> 20 µM	14%	–
CCOC(=O)N1[C@@H]2CC[C@H]1CC(N1CCC3(CC1)OC(=O)NC3Cc1ccccn1)C2 (mixture of isomers) [Example 2-23, ethyl-3-(2-oxo-4-(pyridin-2-ylmethyl)-1-oxa-3,8-diazaspiro[4.5]decan-8-yl)-8-azabicyclo[3.2.1]octane-8-carboxylate]	0.501 µM	86%	> 20 µM	12%	–
O=C1CC2(CCN(C3CC4CCC(C3)N4C(=O)OCCF)CC2)CN1 (single isomer, unassigned) [Example 2-3 Isomer 1]	0.398 µM	–	2 µM	–	% Emax cf. ACh, M1 ([1]; listed as 2-3 Isomer 1): 85%; % Emax cf. ACh, M4 ([2]; listed as 2-3 Isomer 1): 47%
CC(C)OC(=O)N1C2CCC1CC(N1CCC3(CC1)CNC(=O)C3)C2 (single isomer, unassigned) [Example 2-33 Isomer 1]	0.0316 µM	–	0.2 µM	20%	% Emax cf. ACh, M1 ([1]; listed as 2-33 Isomer 1): 37%
COC(=O)N1C2CCC1CC(N1CCC3(CC1)CNC(=O)C3)C2 (single isomer, unassigned) [Example 2-1 Isomer 2]	0.631 µM	72%	1.58 µM	25%	–
CCOC(=O)N1C2CCC1CC(N1CCC3(CC1)OC(=O)NC3(C)C)C2 (single isomer, unassigned) [Example 2-18 Isomer 1]	0.251 µM	55%	> 20 µM	11%	–
CCOC(=O)N1C2CCC1CC(N1CCCC3(CC1)CNC(=O)O3)C2 (single isomer, unassigned) [Example 9-2 Isomer 1, ethyl 3-(2-oxo-1-oxa-3,8-diazaspiro[4.6]undec-8-yl)-8-azabicyclo[3.2.1]octane-8-carboxylate]	> 20 µM	–	> 20 µM	–	% Emax cf. ACh, M1 ([1]; listed as 9-2 Isomer 1): 23%; % Emax cf. ACh, M4 ([2]; listed as 9-2 Isomer 1): 13%
CCOC(=O)N1C2CCC1CC(N1CCCC3(CC1)CNC(=O)O3)C2 (single isomer, unassigned) [Example 9-2 Isomer 3, ethyl 3-(2-oxo-1-oxa-3,8-diazaspiro[4.6]undec-8-yl)-8-azabicyclo[3.2.1]octane-8-carboxylate]	0.501 µM	–	0.0794 µM	–	% Emax cf. ACh, M1 ([1]; listed as 9-2 Isomer 3): 113%; % Emax cf. ACh, M4 ([2]; listed as 9-2 Isomer 3): 81%
